In ChEMBL document CHEMBL3351728, “3-alkoxy-pyrrolo[1,2-b]pyrazolines as selective androgen receptor modulators with ideal physicochemical properties for transdermal administration” (J Med Chem, 2014):
In brackets after ≈: the same amount, converted by molar mass. Activity calls are given as the source filed them. The calls are words filed in the database; no cut-off is given here.

Legend:
[1] = target: T1, Androgen receptor (Homo sapiens) (UniProt P10275); experiment: Agonist activity at human androgen receptor expressed in mouse C2C12 cells by androgen-specific response element-driven luciferase reporter gene assay relative to DHT; type: cell-based
T1 sequence (whole entry): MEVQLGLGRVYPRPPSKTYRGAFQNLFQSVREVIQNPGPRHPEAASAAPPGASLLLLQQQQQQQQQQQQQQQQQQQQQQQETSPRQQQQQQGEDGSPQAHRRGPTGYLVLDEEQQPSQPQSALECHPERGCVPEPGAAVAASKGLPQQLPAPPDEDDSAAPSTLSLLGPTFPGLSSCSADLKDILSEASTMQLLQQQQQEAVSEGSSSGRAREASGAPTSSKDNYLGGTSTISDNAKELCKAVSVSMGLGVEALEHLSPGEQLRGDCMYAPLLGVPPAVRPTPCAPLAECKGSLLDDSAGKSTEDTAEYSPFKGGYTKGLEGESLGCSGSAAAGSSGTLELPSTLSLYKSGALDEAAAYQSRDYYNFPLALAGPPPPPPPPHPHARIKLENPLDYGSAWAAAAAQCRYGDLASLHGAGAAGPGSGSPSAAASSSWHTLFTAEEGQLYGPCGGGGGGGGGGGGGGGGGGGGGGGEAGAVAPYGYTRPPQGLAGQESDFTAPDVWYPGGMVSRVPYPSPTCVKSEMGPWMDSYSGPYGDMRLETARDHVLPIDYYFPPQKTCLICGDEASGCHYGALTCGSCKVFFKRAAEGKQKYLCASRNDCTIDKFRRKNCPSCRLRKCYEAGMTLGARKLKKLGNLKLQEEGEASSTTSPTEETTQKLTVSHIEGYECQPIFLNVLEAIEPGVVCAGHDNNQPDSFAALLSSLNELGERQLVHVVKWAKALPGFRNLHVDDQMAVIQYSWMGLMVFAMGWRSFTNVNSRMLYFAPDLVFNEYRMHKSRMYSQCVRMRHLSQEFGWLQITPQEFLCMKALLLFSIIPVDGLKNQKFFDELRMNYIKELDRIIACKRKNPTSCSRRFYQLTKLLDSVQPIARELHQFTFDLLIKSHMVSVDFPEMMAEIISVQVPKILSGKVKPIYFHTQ

[2] = target: T2, Androgen receptor (Homo sapiens, UniProt P10275)
T2 sequence (P10275 whole entry): T1 sequence (whole entry)

[3] = Lipophilicity, logP of the compound; type: physicochemical; details: octanol/water
[4] = system: Zone of skin; experiment: Skin permeability in human cadaver skin in Franz diffusion cell system; type: ADME
[5] = Thermodynamic solubility of the compound at pH 7.4; type: physicochemical; details: buffer, read-out: Therm_solubility
[6] = Skin drug retention by silicone and isopropyl myristate (70:30) containing artificial membranes based skin PAMPA method
[7] = Skin permeability by silicone and isopropyl myristate (70:30) containing artificial membranes based skin PAMPA method; type: ADME

SMILES	Emax [1] [%]	EC50 [2] [nM]	logP [3]	Jss [4] [ug/cm2.hr]	solubility thermodynamic [5] [µg/mL]	Drug uptake [6]	permeability [7]
Cc1c(C2=NN3CC[C@H](O)[C@H]3[C@@H]2O)ccc(C#N)c1Cl	55	978					
COCCO[C@@H]1C(c2ccc(C#N)c(Cl)c2C)=NN2CC[C@H](O)[C@@H]12	82		2	1.1	2300 (≈ 6570 µM)		
CO[C@@H]1C(c2ccc(C#N)c(Cl)c2C)=NN2C[C@@H](F)C[C@@H]12	86	1.4					
CO[C@@H]1C(c2ccc(C#N)c(Cl)c2C)=NN2CC(=O)C[C@@H]12	93	26					
CO[C@H]1CCN2N=C(c3ccc(C#N)c(Cl)c3C)[C@@H](OC)[C@H]12	82						
CO[C@@H]1C(c2ccc(C#N)c(Cl)c2C)=NN2C[C@H](O)C[C@@H]12	75	9.7					
CO[C@@H]1C(c2ccc(C#N)c(Cl)c2C)=NN2CC[C@@H](O)[C@@H]12	86.7	0.4	1.9	0.2	250 (≈ 818 µM)		
CO[C@@H]1C(c2ccc(C#N)c(Cl)c2C)=NN2CC[C@@H](F)[C@@H]12	98	0.16	2.7	1.2	10 (≈ 32.5 µM)	inactive	permeable
